Data as given in patent publication US10441576B2, “Substituted 1,2-dihydro-3H pyrrolo[1,2-c]imidazol-3 one antibacterials” (priority 2015, dated 2019).
In brackets after ≈: the same amount, converted by molar mass.

How the values were obtained:
Type in all cases: cell-based
wild-type E. coli A-1261 [1] = test: MIC against E. coli A-1261 in the absence or presence of alkaline phosphatase or esterase
Procedure: (§1) Minimal Inhibitory Concentrations (MICs; mg/L) were determined in cation-adjusted Mueller-Hinton Broth by a microdilution method following the description given in “Methods for Dilution Antimicrobial Susceptibility Tests for Bacteria that Grow Aerobically”, Approved standard, 7th ed., Clinical and Laboratory Standards Institute (CLSI) Document M7-A7, Wayne, Pa., USA (2006).
All Example compounds were tested against wild-type E. coli A-1261 in the absence of alkaline phosphatase or esterase, in the presence of an alkaline phosphatase and in the presence of an esterase. The corresponding antibacterial test results are given in Table 2 hereafter (MICs in mg/L).

E. coli ATCC25922 = test: Bacterial growth minimal inhibitory concentration (microdilution, cation-adjusted Mueller-Hinton Broth); conditions: Escherichia coli, quinolone-sensitive strain
Procedure: as §1
(§2) All Reference Example compounds were tested against several Gram-negative bacteria. […] The corresponding antibacterial test results are given in Table 1 hereafter (MICs in mg/L).

K. pneumoniae A-651 = test: as above; conditions: Klebsiella pneumoniae, A651; multiply resistant strain (in particular quinolone-resistant)
Procedure: as §1, §2

P. aeruginosa ATCC27853 = test: as above; conditions: Pseudomonas aeruginosa, quinolone-sensitive strain
Procedure: as §1, §2

wild-type E. coli A-1261 [2] = test: as above; conditions: Escherichia coli, quinolone-sensitive strain
Procedure: as §1, §2

[3] = Escherichia coli, read-out: MIC for E. coli A-1261 In the absence of alkaline phosphatase or esterase
[4] = Escherichia coli, read-out: MIC for E. coli A-1261 In the presence of an alkaline phosphatase (2 i.U./mL)
[5] = Escherichia coli, read-out: MIC for E. coli A-1261 In the presence of an esterase (10 i.U./mL)
[6] = Escherichia coli; alkaline phosphatase 2 i.U./mL; read-out: MIC for E. coli A-1261 In the presence of an alkaline phosphatase (2 i.U./mL)
[7] = Escherichia coli; esterase 10 i.U./mL; read-out: MIC for E. coli A-1261 In the presence of an esterase (10 i.U./mL)
[8] = Escherichia coli; read-out: MIC for E. coli A-1261 In the absence of alkaline phosphatase or esterase

Compound: C[C@@](CCN1Cc2cc(C#CC#C[C@H]3C[C@@H]3COC(=O)CCc3ccccc3OP(=O)(O)O)cn2C1=O)(C(=O)NO)S(C)(=O)=O [Example 5, ((1S,2S)-2-((2-((R)-4-(hydroxyamino)-3-methyl-3-(methylsulfonyl)-4-oxobutyl)-3-oxo-2,3-dihydro-1H-pyrrolo[1,2-c]imidazol-6-yl)buta-1,3-diyn-1-yl)cyclopropyl)methyl 3-(2-(phosphonooxy)phenyl)propanoate]
- MIC (wild-type E. coli A-1261 [1]; [3]): 4 µg/mL
- MIC (wild-type E. coli A-1261 [1]; [4]): 0.25 µg/mL
- MIC (wild-type E. coli A-1261 [1]; [5]): 0.25 µg/mL

Compound: C[C@@](CCN1Cc2cc(C#CC#CC3(CO)CC3)cn2C1=O)(C(=O)NOC(=O)CCc1ccccc1OP(=O)(O)O)S(C)(=O)=O [Example 3, (R)-2-(3-((4-(6-((1-(hydroxymethyl)cyclopropyl)buta-1,3-diyn-1-yl)-3-oxo-1H-pyrrolo[1,2-c]imidazol-2(3H)-yl)-2-methyl-2-(methylsulfonyl)butanamido)oxy)-3-oxopropyl)phenyl dihydrogen phosphate]
- MIC (wild-type E. coli A-1261 [1]; [3]): 8 µg/mL
- MIC (wild-type E. coli A-1261 [1]; [4]): 0.5 µg/mL
- MIC (wild-type E. coli A-1261 [1]; [5]): 8 µg/mL

Compound: C[C@@](CCN1Cc2cc(C#CC#C[C@H]3C[C@]3(F)CO)cn2C1=O)(C(=O)NO)S(C)(=O)=O [RE3, (R)-4-(6-(((1R,2R)-2-fluoro-2-(hydroxymethyl)cyclopropyl)buta-1,3-diyn-1-yl)-3-oxo-1H-pyrrolo[1,2-c]imidazol-2(3H)-yl)-N-hydroxy-2-methyl-2-(methylsulfonyl)butanamide]
- MIC (E. coli ATCC25922): 0.25 µg/mL (≈ 0.554 µM)
- MIC (K. pneumoniae A-651): 0.5 µg/mL (≈ 1.11 µM)
- MIC (P. aeruginosa ATCC27853): 0.5 µg/mL (≈ 1.11 µM)
- MIC (wild-type E. coli A-1261 [2]): 0.25 µg/mL (≈ 0.554 µM)

Compound: C[C@@](CCN1Cc2cc(C#CC#C[C@H]3C[C@@H]3COP(=O)(O)O)cn2C1=O)(C(=O)NO)S(C)(=O)=O [Example 4, ((1S,2S)-2-((2-((R)-4-(hydroxyamino)-3-methyl-3-(methylsulfonyl)-4-oxobutyl)-3-oxo-2,3-dihydro-1H-pyrrolo[1,2-c]imidazol-6-yl)buta-1,3-diyn-1-yl)cyclopropyl)methyl dihydrogen phosphate]
- MIC (wild-type E. coli A-1261 [1]; [6]): 0.25 µg/mL
- MIC (wild-type E. coli A-1261 [1]; [7]): > 8 µg/mL
- MIC (wild-type E. coli A-1261 [1]; [8]): > 8 µg/mL

Compound: C[C@@](CCN1Cc2cc(C#CC#CC3(COC(=O)CCc4ccccc4OP(=O)(O)O)CC3)cn2C1=O)(C(=O)NO)S(C)(=O)=O [Example 2, (R)-(1-((2-(4-(hydroxyamino)-3-methyl-3-(methylsulfonyl)-4-oxobutyl)-3-oxo-2,3-dihydro-1H-pyrrolo[1,2-c]imidazol-6-yl)buta-1,3-diyn-1-yl)cyclopropyl)methyl 3-(2-(phosphonooxy)phenyl)propanoate]
- MIC (wild-type E. coli A-1261 [1]; [3]): 8 µg/mL
- MIC (wild-type E. coli A-1261 [1]; [4]): 1 µg/mL
- MIC (wild-type E. coli A-1261 [1]; [5]): 1 µg/mL

Compound: C[C@@](CCN1Cc2cc(C#CC#C[C@H]3C[C@@H]3CO)cn2C1=O)(C(=O)NO)S(C)(=O)=O [RE2, (R)—N-hydroxy-4-(6-(((1S,2S)-2-(hydroxymethyl)cyclopropyl)buta-1,3-diyn-1-yl)-3-oxo-1H-pyrrolo[1,2-c]imidazol-2(3H)-yl)-2-methyl-2-(methylsulfonyl)butanamide]
- MIC (E. coli ATCC25922): 0.25 µg/mL (≈ 0.577 µM)
- MIC (K. pneumoniae A-651): 0.25 µg/mL (≈ 0.577 µM)
- MIC (P. aeruginosa ATCC27853): 0.25 µg/mL (≈ 0.577 µM)
- MIC (wild-type E. coli A-1261 [2]): 0.125 µg/mL (≈ 0.288 µM)

Compound: C[C@@](CCN1Cc2cc(C#CC#CC3(CO)CC3)cn2C1=O)(C(=O)NO)S(C)(=O)=O [RE1, (R)—N-hydroxy-4-(6-((1-(hydroxymethyl)cyclopropyl)buta-1,3-diyn-1-yl)-3-oxo-1H-pyrrolo[1,2-c]imidazol-2(3H)-yl)-2-methyl-2-(methylsulfonyl)butanamide]
- MIC (E. coli ATCC25922): 0.5 µg/mL (≈ 1.15 µM)
- MIC (K. pneumoniae A-651): 1 µg/mL (≈ 2.31 µM)
- MIC (P. aeruginosa ATCC27853): 1 µg/mL (≈ 2.31 µM)
- MIC (wild-type E. coli A-1261 [2]): 0.25 µg/mL (≈ 0.577 µM)

Compound: C[C@@](CCN1Cc2cc(C#CC#C[C@H]3C[C@]3(F)COP(=O)(O)O)cn2C1=O)(C(=O)NO)S(C)(=O)=O [Example 6, ((1R,2R)-1-fluoro-2-((2-((R)-4-(hydroxyamino)-3-methyl-3-(methylsulfonyl)-4-oxobutyl)-3-oxo-2,3-dihydro-1H-pyrrolo[1,2-c]imidazol-6-yl)buta-1,3-diyn-1-yl)cyclopropyl)methyl dihydrogen phosphate]
- MIC (wild-type E. coli A-1261 [1]; [6]): 0.5 µg/mL
- MIC (wild-type E. coli A-1261 [1]; [7]): > 8 µg/mL
- MIC (wild-type E. coli A-1261 [1]; [8]): > 8 µg/mL

Compound: C[C@@](CCN1Cc2cc(C#CC#CC3(COC(=O)CN4CCOCC4)CC3)cn2C1=O)(C(=O)NO)S(C)(=O)=O [Example 1, (R)-(1-((2-(4-(hydroxyamino)-3-methyl-3-(methylsulfonyl)-4-oxobutyl)-3-oxo-2,3-dihydro-1H-pyrrolo[1,2-c]imidazol-6-yl)buta-1,3-diyn-1-yl)cyclopropyl)methyl 2-morpholinoacetate]
- MIC (wild-type E. coli A-1261 [1]; [6]): 1 µg/mL
- MIC (wild-type E. coli A-1261 [1]; [7]): 0.25 µg/mL
- MIC (wild-type E. coli A-1261 [1]; [8]): 2 µg/mL

Compound: C[C@@](CCN1Cc2cc(C#CC#CC3(CO)CC3)cn2C1=O)(C(=O)NOP(=O)(O)O)S(C)(=O)=O.N [Example 7, mono-ammonium (R)-((4-(6-((1-(hydroxymethyl)cyclopropyl)buta-1,3-diyn-1-yl)-3-oxo-1H-pyrrolo[1,2-c]imidazol-2(3H)-yl)-2-methyl-2-(methylsulfonyl)butanamido)oxy)phosphonate]
- MIC (wild-type E. coli A-1261 [1]; [6]): 1 µg/mL
- MIC (wild-type E. coli A-1261 [1]; [7]): 4 µg/mL
- MIC (wild-type E. coli A-1261 [1]; [8]): 4 µg/mL

Compound: (R)-(1-((2-(4-(hydroxyamino)-3-methyl-3-(methylsulfonyl)-4-oxobutyl)-3-oxo-2,3-dihydro-1H-pyrrolo[1,2-c]imidazol-6-yl)buta-1,3-diyn-1-yl)cyclopropyl)methyl hydrogen sulfate [Example 8]
- MIC for E. coli A-1261 In the absence of alkaline phosphatase or esterase (wild-type E. coli A-1261 [1]; absence of alkaline phosphatase or esterase): 2 µg/mL
- MIC for E. coli A-1261 In the presence of an alkaline phosphatase (2 i.U./mL) (wild-type E. coli A-1261 [1]; alkaline phosphatase 2 i.U./mL): 2 µg/mL
- MIC for E. coli A-1261 In the presence of an esterase (10 i.U./mL) (wild-type E. coli A-1261 [1]; esterase 10 i.U./mL): 2 µg/mL
